Active and inactive are the calls of the source. No cut-off for these calls is given here.
Key:
[1] = Therapeutic index, ratio of effective concentration for cytotoxicity in human SH-SY5Y cells to effective concentration for activation of PXR/LXR in human LS180 cells assessed as induction of P-gp; format: cell-based; conditions: read-out: TI
[2] = Cytotoxicity against human SH-SY5Y cells assessed as effect on cell viability at 50 uM measured after 24 hrs by MTT assay relative to control; format: toxicity, cell-based; conditions: read-out: Activity
LS180 [3] = assay: (§1) Activation of PXR/LXR in human LS180 cells assessed as induction of P-gp by measuring decrease in intracellular accumulation of Rhodamine-123 at 0.3 uM preincubated for 48 hrs followed by 40 mins incubation with HANKS buffer and subsequent addition of Rhodamine-123 measured after 90 mins by fluorescence assay; format: cell-based
[4] = Cytotoxicity against human LS180 cells assessed as effect on cell viability at 50 uM measured after 24 hrs by MTT assay relative to control; format: toxicity, cell-based; conditions: read-out: Activity
LS180 [5] = assay: as §1, with “measured as” for “by measuring decrease in”, “5” for “0.3”, “analysis relative to control” for “assay”; format: cell-based
LS180 [6] = assay: Activation of PXR/LXR in human LS180 cells assessed as induction of P-gp at 5 uM measured after 24 hrs by Western blot analysis; format: cell-based
[7] = Therapeutic index, ratio of effective concentration for cytotoxicity in human LS180 cells to effective concentration for activation of PXR/LXR in human LS180 cells assessed as induction of P-gp; format: cell-based; conditions: read-out: TI
[8] = Cytotoxicity against human LS180 cells assessed as effect on cell viability measured after 24 hrs by MTT assay; format: toxicity, cell-based
[9] = Cytotoxicity against human SH-SY5Y cells assessed as effect on cell viability measured after 24 hrs by MTT assay; format: toxicity, cell-based
[10] = Neuroprotective activity in human SH-SY5Y cells assessed as decrease in amyloid beta-induced cytotoxicity measured as cell viability at 5 uM pretreated for 30 mins prior amyloid beta-challenge measured after 48 hrs by MTT assay (reference value: 68%); format: functional
LS180 [11] = assay: as §1, with “measuring” for “measuring decrease in”, “10” for “0.3”, “assay relative to control” for “assay”; format: cell-based

| Structure (SMILES) | selectivity ratio [1] | viability at 24 h, 50 µM [2] [%] | Activity (LS180 [3]) | viability at 24 h, 50 µM [4] [%] | Activity (LS180 [5]) [%] | Activity (LS180 [6]) | selectivity ratio [7] | IC50 at 24 h [8] [µM] | IC50 at 24 h [9] [µM] | Activity [10] [%] | Activity (LS180 [11]) [%] |
| --- | --- | --- | --- | --- | --- | --- | --- | --- | --- | --- | --- |
| CC(=O)c1ccc(N(Cc2cn(-c3ccccc3)nn2)S(=O)(=O)c2ccccc2)cc1 | 10 | 114 | Active | 86.3 | 53.4 | – | – | – | – | – | – |
| CC(=O)c1ccc(N(Cc2cn(-c3ccccc3C(F)(F)F)nn2)S(=O)(=O)c2ccccc2)cc1 | 10 | 83.9 | – | 112 | 48.5 | Active | 10 | – | – | – | – |
| O=S(=O)(c1ccccc1)N(CC(F)(F)F)c1ccc(C(O)(C(F)(F)F)C(F)(F)F)cc1 [T091317] | 10 | 94.8 | Active | 73.3 | 64.2 | Active | 10 | > 50 | > 50 | – | – |
| O=S(=O)(c1ccccc1)N(Cc1cn(-c2ccccc2F)nn1)c1ccc(C(O)(C(F)(F)F)C(F)(F)F)cc1 | 10 | 129 | Active | 65.1 | 61.8 | – | 10 | – | – | – | – |
| CC(=O)c1ccc(N(Cc2cn(-c3ccc(C(F)(F)F)cc3)nn2)S(=O)(=O)c2ccccc2)cc1 | > 166 | 108 | Active | 76.7 | 48.4 | Active | > 166 | > 50 | > 50 | 79 | – |
| O=S(=O)(c1ccccc1)N(Cc1cn(-c2c(F)cccc2F)nn1)c1ccc(C(O)(C(F)(F)F)C(F)(F)F)cc1 | 10 | 125 | Active | 74.5 | 65.1 | – | 10 | – | – | 75 | – |
| Cc1ccc(-n2cc(CN(c3ccc(C(O)(C(F)(F)F)C(F)(F)F)cc3)S(=O)(=O)c3ccccc3)nn2)cc1C | 10 | 68.7 | – | 80 | 68.7 | – | 10 | – | – | – | – |
| CCOC(=O)c1ccc(-n2cc(CN(c3ccc(C(O)(C(F)(F)F)C(F)(F)F)cc3)S(=O)(=O)c3ccccc3)nn2)cc1 | 10 | 73.8 | – | 76.5 | 91.3 | – | 10 | – | – | – | – |
| CO[C@H]1/C=C/O[C@@]2(C)Oc3c(C)c(O)c4c(O)c(c(/C=N/N5CCN(C)CC5)c(O)c4c3C2=O)NC(=O)/C(C)=C\C=C\[C@H](C)[C@H](O)[C@@H](C)[C@@H](O)[C@@H](C)[C@H](OC(C)=O)[C@@H]1C | – | – | – | – | – | – | – | – | – | – | 66.9 |
| CC(=O)c1ccc(N(Cc2cn(-c3cccc(C(C)=O)c3)nn2)S(=O)(=O)c2ccccc2)cc1 | 10 | 78.7 | – | 84.7 | 71 | – | 10 | – | – | – | – |
